Assay results from patent US11078193B2 (priority 2014, dated 2021).

How the values were obtained:
[1] = ATP based toxicity assay (ATPlite), HepG2 cell line; conditions: human, HepG2 cells, ATPlite (ATP levels)
Protocol: Alternatively, cytotoxicity was determined via an ATP-assay: The ATPlite kit from Perkin Elmer was used to assess compound cytotoxicity on the HepG2 cell line by determination of the ATP (adenosine triphosphate) levels. ATP is a marker for functional integrity and cell viability, because it is present in all metabolically active cells and any form of cell injury will result in a rapid decline in cellular ATP concentration. After compound incubation, 1 volume of ATPlite solution was added to the cells and the luminescence signal was measured.

HBV = experiment: anti HBV activity, HepG2.117 inducibly HBV producing cell line (Tet-off), intracellular HBV DNA by realtime PCR; assay type: cell-based; conditions: Hepatitis B virus, 72 h, HepG2.117 cells, 3 days of treatment

For `Cn1cc(S(=O)(=O)NC2(C(F)(F)F)COC2)c(F)c1C(=O)Nc1cc(F)nc(F)c1` [Compound 211], the CC50 at 4 days [1] was > 25000 nM and the EC50 (HBV) was 50 nM.

For `Cc1c(S(=O)(=O)N[C@H](C)C(F)(F)F)c(F)c(C(=O)Nc2ccnc(Br)c2)n1C` [Compound 205, N-(2-bromo-4-pyridyl)-3-fluoro-1,5-dimethyl-[[(1R)-2,2,2-trifluoro-1-methyl-ethyl]sulfamoyl]pyrrole-2-carboxamide], the CC50 at 4 days [1] was > 25000 nM and the EC50 (HBV) was 20 nM.

In the case of `Cn1cc(S(=O)(=O)NC2CCN(CC(F)(F)F)CC2)c(F)c1C(=O)Nc1ccnc(Cl)c1` [Compound 217, N-(2-chloro-4-pyridyl)-3-fluoro-1-methyl-4-[[1-(2,2,2-trifluoroethyl)-4-piperidyl]sulfamoyl]pyrrole-2-carboxamide], the CC50 at 4 days [1] is reported as > 25000 nM and the EC50 (HBV) is reported as 460 nM.

With `Cn1cc(S(=O)(=O)NC2(C(F)(F)F)COC2)c(F)c1C(=O)Nc1ccnc(C(F)F)c1` [Compound 210] the CC50 at 4 days [1] was > 25000 nM and the EC50 (HBV) was 70 nM.

For `C[C@@H](NS(=O)(=O)c1cn(C)c(C(=O)Nc2cc(F)nc(Br)c2)c1F)C(F)(F)F` [Compound 216, N-(2-bromo-6-fluoro-4-pyridyl)-3-fluoro-1-methyl-[[(1R)-2,2,2-trifluoro-1-methyl-ethyl]sulfamoyl]pyrrole-2-carboxamide], the CC50 at 4 days [1] was > 25000 nM and the EC50 (HBV) was 10 nM.

With `Cn1cc(S(=O)(=O)NC2(C(F)(F)F)CC2)c(F)c1C(=O)Nc1ccnc(Br)c1F` [Compound 203, N-(2-bromo-3-fluoro-4-pyridyl)-3-fluoro-1-methyl-4-[[1-(trifluoromethyl)cyclopropyl]sulfamoyl]pyrrole-2-carboxamide] the CC50 at 4 days [1] was > 25000 nM and the EC50 (HBV) was 8 nM.

In the case of `Cn1cc(S(=O)(=O)NC2(C(F)(F)F)COC2)c(F)c1C(=O)Nc1ccnc(C(F)F)c1F` [Compound 208, N-[2-(difluoromethyl)-3-fluoro-4-pyridyl]-3-fluoro-1-methyl-4-[[3-(trifluoromethyl)oxetan-3-yl]sulfamoyl]pyrrole-2-carboxamide], the CC50 at 4 days [1] is reported as > 25000 nM and the EC50 (HBV) is reported as 40 nM.

With `Cn1cc(S(=O)(=O)NC2(C(F)(F)F)COC2)c(F)c1C(=O)Nc1ccnc(Cl)c1` [Compound 198] the CC50 at 4 days [1] was > 25000 nM and the EC50 (HBV) was 90 nM.

With `Cn1cc(S(=O)(=O)NC2(C)CC(F)(F)C2)c(Cl)c1C(=O)Nc1ccnc(C#N)c1F` [Compound 162, 3-chloro-N-(2-cyano-3-fluoro-4-pyridyl)-4-[(3,3-difluoro-1-methyl-cyclobutyl)sulfamoyl]-1-methyl-pyrrole-2-carboxamide] the CC50 at 4 days [1] was > 25000 nM and the EC50 (HBV) was 20 nM.

In the case of `C[C@@H](NS(=O)(=O)c1cn(C)c(C(=O)Nc2ccnc(CF)c2)c1Cl)C(F)(F)F` [Compound 145, 3-chloro-N-[2-(fluoromethyl)-4-pyridyl]-1-methyl-4-[[(1R)-2,2,2-trifluoro-1-methyl-ethyl]sulfamoyl]pyrrole-2-carboxamide], the CC50 at 4 days [1] is reported as > 25000 nM and the EC50 (HBV) is reported as 80 nM.

With `Cn1cc(S(=O)(=O)NC2(C(F)(F)F)CC2)c(F)c1C(=O)Nc1ccnc(C(F)F)c1F` [Compound 195, N-[2-(difluoromethyl)-3-fluoro-4-pyridyl]-3-fluoro-1-methyl-4-[[1-(trifluoromethyl)cyclopropyl]sulfamoyl]pyrrole-2-carboxamide] the CC50 at 4 days [1] was > 25000 nM and the EC50 (HBV) was 20 nM.

With `Cn1cc(S(=O)(=O)NC2(C(F)(F)F)CC2)c(F)c1C(=O)Nc1ccnc(C(F)F)c1` [Compound 196, N-[2-(difluoromethyl)-4-pyridyl]-3-fluoro-1-methyl-4-[[1-(trifluoromethyl)cyclopropyl]sulfamoyl]pyrrole-2-carboxamide] the CC50 at 4 days [1] was > 25000 nM and the EC50 (HBV) was 20 nM.

For `Cn1cc(S(=O)(=O)NC(C)(C)C(F)(F)F)c(F)c1C(=O)Nc1ccnc(C(F)F)c1` [Compound 190, N-[2-(difluoromethyl)-4-pyridyl]-3-fluoro-1-methyl-4-[(2,2,2-trifluoro-1,1-dimethyl-ethyl)sulfamoyl]pyrrole-2-carboxamide], the CC50 at 4 days [1] was > 25000 nM and the EC50 (HBV) was 50 nM.

In the case of `C[C@@H](NS(=O)(=O)c1cn(C)c(C(=O)Nc2ccnc(C(F)F)c2F)c1F)C(F)(F)F` [Compound 202, N-[2-(difluoromethyl)-3-fluoro-4-pyridyl]-3-fluoro-1-methyl-4-[[(1R)-2,2,2-trifluoro-1-methyl-ethyl]sulfamoyl]pyrrole-2-carboxamide], the CC50 at 4 days [1] is reported as > 25000 nM and the EC50 (HBV) is reported as 8 nM.

For `Cn1cc(S(=O)(=O)NC(C)(C)C(F)(F)F)c(F)c1C(=O)Nc1ccnc(Br)c1` [Compound 191, N-(2-bromo-4-pyridyl)-3-fluoro-1-methyl-4-[(2,2,2-trifluoro-1,1-dimethyl-ethyl)sulfamoyl]pyrrole-2-carboxamide], the CC50 at 4 days [1] was > 25000 nM and the EC50 (HBV) was 60 nM.

In the case of `Cn1cc(S(=O)(=O)NC(C)(C)C(F)(F)F)c(F)c1C(=O)Nc1cc(F)nc(F)c1` [Compound 189, N-(2,6-difluoro-4-pyridyl)-3-fluoro-1-methyl-4-[(2,2,2-trifluoro-1,1-dimethyl-ethyl)sulfamoyl]pyrrole-2-carboxamide], the CC50 at 4 days [1] is reported as > 25000 nM and the EC50 (HBV) is reported as 60 nM.

For `Cn1cc(S(=O)(=O)NC2(C(F)(F)F)CC2)c(F)c1C(=O)Nc1ccnc(C#N)c1` [Compound 192, N-(2-cyano-4-pyridyl)-3-fluoro-1-methyl-4-[[1-(trifluoromethyl)cyclopropyl]sulfamoyl]pyrrole-2-carboxamide], the CC50 at 4 days [1] was > 25000 nM and the EC50 (HBV) was 20 nM.

For `Cc1nc(NC(=O)c2c(F)c(S(=O)(=O)N[C@H](C)C(F)(F)F)cn2C)ccc1F` [Compound 214, 3-fluoro-N-(5-fluoro-6-methyl-2-pyridyl)-1-methyl-4-[[(1R)-2,2,2-trifluoro-1-methyl-ethyl]sulfamoyl]pyrrole-2-carboxamide], the CC50 at 4 days [1] was > 25000 nM and the EC50 (HBV) was 80 nM.

With `Cc1c(S(=O)(=O)N[C@H](C)C(F)(F)F)c(F)c(C(=O)Nc2ccnc(C(F)F)c2F)n1C` [Compound 207, N-[2-(difluoromethyl)-3-fluoro-4-pyridyl]-3-fluoro-1,5-dimethyl-4-[[(1R)-2,2,2-trifluoro-1-methyl-ethyl]sulfamoyl]pyrrole-2-carboxamide] the CC50 at 4 days [1] was > 25000 nM and the EC50 (HBV) was 10 nM.

In the case of `Cc1c(S(=O)(=O)N[C@H](C)C(F)(F)F)c(F)c(C(=O)Nc2ccnc(C(F)F)c2)n1C` [Compound 206, N-[2-(difluoromethyl)-4-pyridyl]-3-fluoro-1,5-dimethyl-4-[[(1R)-2,2,2-trifluoro-1-methyl-ethyl]sulfamoyl]pyrrole-2-carboxamide], the CC50 at 4 days [1] is reported as > 25000 nM and the EC50 (HBV) is reported as 20 nM.

With `C[C@@H](NS(=O)(=O)c1cn(C)c(C(=O)Nc2ccnc(C(F)F)c2F)c1F)C(C)(F)F` [Compound 204, N-[2-(difluoromethyl)-3-fluoro-4-pyridyl]-4-[[(1R)-2,2-difluoro-1-methyl-propyl]sulfamoyl]-3-fluoro-1-methyl-pyrrole-2-carboxamide] the CC50 at 4 days [1] was > 25000 nM and the EC50 (HBV) was 10 nM.

With `Cn1cc(S(=O)(=O)NC(C)(C)C(F)(F)F)c(F)c1C(=O)Nc1ccnc(C#N)c1` [Compound 188, N-(2-cyano-4-pyridyl)-3-fluoro-1-methyl-4-[(2,2,2-trifluoro-1,1-dimethyl-ethyl)sulfamoyl]pyrrole-2-carboxamide] the CC50 at 4 days [1] was > 25000 nM and the EC50 (HBV) was 100 nM.
